According to patent publication US20130005824A1, “TREATMENT OF ISCHEMIC TISSUE” (The Research Foundation of State University of New York, priority 2009, published 2013):
Read-outs that look alike come from different tables or passages of the source.

Tests used:
rat comb burn model = test: Burn injury progression in the rat hot comb burn model, intravenous curcumin; type: in vivo; conditions: for interspaces that progressed to full thickness necrosis, histologic analysis: day 7, control 67%
Protocol: In this study, we determined the effects of curcumin on burn progression in the rat hot comb model. […] Pure curcumin (99.9% as determined by HPLC and mass spectroscopy analysis) produced under GMP was acquired from ChromaDex, Inc for the studies described below.
Animals were randomized to receive one of six intravenous doses of curcumin (0.3, 1.0, 3.0, 10, 30, or 100 μg/kg) in 1 ml of phosphate buffered saline (PBS) or PBS alone (buffer control) administered via the tail vein at 1 and 24 hours after injury. […] Full-thickness biopsies from the interspaces 7 days after injury were evaluated for evidence of necrosis after H&E staining. The percentages of interspaces that progressed to necrosis were compared with chi-squared (χ2) tests. At the seventh day, the number of interspaces that processed to full thickness necrosis was 67% for control, 58, 53, 37, 63, 53, and 26% for 0.1, 0.3, 1, 3, 10, 30 and 100 μg/kg curcumin respectively as determined by histologic analysis. Similar results were obtained for the macroscopic evaluation at day 2, 5, and 7. […] The same experiment was repeated a second time and gave essentially the same results.

[1] = system: hamster cheek pouch arterioles (arcade arteriole and terminal arteriolar feed); test: Microvascular response (arteriolar diameter change) to locally applied curcumin in hamster cheek pouch tissue, intravital microscopy; type: in vivo; conditions: for EC50: Mesocricetus auratus
[2] = curcumin alone, similar for arcade and feed

- EC50 ([1]; curcumin alone, micropipette 60 s, similar for arcade and feed, read-out: logEC50 for dilation (converted)): 0.316 nM
- EC50 ([1]; curcumin alone, similar for arcade and feed, read-out: logEC50 for constriction (converted)): 3.98 nM
- EC50 ([1]; phentolamine 10^−5 M, constrictor component removed, read-out: logEC50, dilation to curcumin with phentolamine (converted)): 0.1 ± 0.004 nM
- EC50 ([1]; propranolol 10^−5 M, dilation component removed, read-out: logEC50, constriction to curcumin with propranolol (converted)): 0.01 nM
SMILES: COc1cc(/C=C/C(=O)CC(=O)/C=C/c2ccc(O)c(OC)c2)ccc1O [curcumin, (E,E)-1,7-bis (4-hydroxy-3-methoxyphenyl)-1,6-heptadiene-3,5,-dione]
- progression to necrosis compared to control (rat comb burn model; 3 μg/kg and 100 μg/kg i.v., p<0.01, macroscopic evaluation and histologic analysis): significantly less progression to necrosis
- interspaces that progressed to full thickness necrosis, histologic analysis (rat comb burn model; fifth value listed (30 μg/kg by method)): 53%
- interspaces that progressed to full thickness necrosis, histologic analysis (rat comb burn model; fourth value listed (10 μg/kg by method)): 63%
- interspaces that progressed to full thickness necrosis, histologic analysis (rat comb burn model; i.v. at 1 and 24 h after injury, first value listed (0.3 μg/kg by method, 0.1 μg/kg by the sentence)): 58%
- interspaces that progressed to full thickness necrosis, histologic analysis (rat comb burn model; last value listed (100 μg/kg)): 26%
- interspaces that progressed to full thickness necrosis, histologic analysis (rat comb burn model; second value listed (1 μg/kg by method)): 53%
- interspaces that progressed to full thickness necrosis, histologic analysis (rat comb burn model; third value listed (3 μg/kg by method)): 37%
- curcumin-induced dilation remaining with LNNA ([1]; 10^−4M LNNA, curcumin 10^−10 though 10^−7 M): significant curcumin-induced dilation remained
- curcumin-induced dilation remaining with LNNA ([1]; 10^−5M LNNA, 10^−12 to 10^−10 M curcumin): a significant dilation remained
- curcumin-induced dilation with LNNA ([1]; 10^−5M LNNA, terminal feed arterioles, similar pattern in arcade): attenuated
- effect of simultaneous PD142893 on the curcumin response ([1]; PD142893 (endothelin antagonist) 10^−5 M): no effect
- effect of PD142893 on maximal dilation and constriction to curcumin ([1]; PD142893 (endothelin antagonist), no effect on baseline diameters): diminished the maximal dilation and enhanced the maximal constriction
- curcumin-induced dilation with cAMP blockade ([1]; Rp-8-br-cAMPS, curcumin 10^−6M, arcade, but not terminal arterioles): significantly suppressed
- curcumin-induced constriction with cAMP blockade ([1]; Rp-8-br-cAMPS, curcumin 10^−8M, arcade, but not terminal arterioles): attenuated
- curcumin-induced dilation with cGMP blockade ([1]; Rp-8-br-cGMPS, terminal and arcade arterioles): prevented all curcumin-induced dilation
- local response after microvascular preconditioning ([1]; after deliberate microvascular preconditioning): predominantly constriction
- effect of simultaneous atropine on the curcumin response ([1]; atropine (muscarinic antagonist) 10^−7 M): no effect
- effect of atropine on maximal dilation and constriction to curcumin ([1]; atropine (muscarinic antagonist), no effect on baseline diameters): diminished the maximal dilation and enhanced the maximal constriction
- constrictor and dilatory (cGMP and cAMP mediated) responses before and after repeated exposure (potential cytotoxicity) ([1]; baseline diameter recovery and tone after repeated 60 second exposures): unchanged
- terminal arteriole diameter, 60 second time-course ([1]; curcumin 10^−6M continuously applied): initial vasodilation at 20 seconds was followed by vasoconstriction that peaked at 60 seconds
- terminal arteriole diameter, 60 second time-course ([1]; curcumin 10^−10M continuously applied): sustained dilation
- response to curcumin with propranolol and phentolamine together ([1]; curcumin 10^−10 M, 10^−8M and 10^−6M, terminal and arcade arterioles): blocked all response
- peak constriction [1, 2]: −15±5%
- peak dilation [1, 2]: +40±8%
- peak dilation, terminal versus arcade arterioles ([1]; dose-response 10^−13M to 10^−3M, 20 s and 60 s): significantly greater for terminal arterioles than for arcade arterioles
- concentration inducing vasodilation after versus before preconditioning ([1]; in vivo studies to date, after preconditioning): lower concentrations
- effect on arteriolar diameter during induced endothelial dysfunction ([1]; nitro-arginine added to the tissue bath): the dilation component was potentiated and constriction was attenuated
- peak dilation to curcumin with phentolamine, arcade ([1]; phentolamine 10^−5 M, arcade arteriole): +34±9
- peak dilation to curcumin with phentolamine, feed ([1]; phentolamine 10^−5 M, terminal feed arteriole): +65 +10
- peak constriction to curcumin with propranolol ([1]; propranolol 10^−5 M): −30 ±7%
- constriction response to curcumin with phentolamine ([1]; terminal arteriole, phentolamine 10^−5M): abolished
- dilation response to curcumin with propranolol ([1]; terminal arteriole, propranolol 10^−5M): abolished
